{"source": "paper PMC5460445", "about": "“Pharmacokinetic Comparison of 20(R)- and 20(S)-Ginsenoside Rh1 and 20(R)- and 20(S)-Ginsenoside Rg3 in Rat Plasma following Oral Administration of Radix Ginseng Rubra and Sheng-Mai-San Extracts” (Evidence-based Complementary and Alternative Medicine : eCAM, 2017)", "experiment": "Pharmacokinetic study in rats after oral administration of Radix Ginseng Rubra or SMS extracts (LC-MS of plasma)", "format": "in vivo, Male Sprague-Dawley rats", "parameters": "AUC(0–t) / AUC(0–∞): unit not given here", "settings": "for T max / AUC(0–t) / AUC(0–∞) / C max / t 1/2: rat plasma; for AUC(0–t) / AUC(0–∞) / C max / t 1/2: mean ± SD", "excerpt": "A Shimadzu 2020 LC-MS system, with an electrospray ionization interface (ESI) source and Shimadzu LCMS LabSolution Workstation software for data processing, was utilized to perform the analytical procedures. The system includes two Shimadzu LC-20AD pumps, a Shimadzu SIL-20A autosampler, a Shimadzu CTO-20A column oven, a CBM-20A system controller, and a Shimadzu DGU-20A3 online degasser. A Q-array-octapole-quadrupole mass analyzer was used as the detector.\nThe chromatographic separation was carried on a Diamonsil C18 column (150 mm × 4.6 mm id, 5 μm; Dikma, China) with the mobile phase containing 0.5 mmol/L ammonium chloride in double-distilled water (A) and acetonitrile (B) at a flow rate of 1.0 mL/min. A diverter valve was used to direct 0.3 mL/min HPLC elute to MS detector and 0.7 mL/min elute to a waste container. A gradient elution program was used as follows: 0.01→6.0 min, 38% B; 6.0→6.5 min, 38→50% B; 6.5→15.0 min, 50% B; 15.0→15.5 min, 50→38% B. The column temperature was kept constant at 40°C.\nThe negative-ion electrospray ionization mode was utilized under the following source conditions: curved desolvation line (CDL) temperature, 250°C; block temperature, 400°C; interface temperature, 350°C; nebulizing gas flow rate, 1.5 L/min; drying gas flow rate, 10 L/min. CDL voltage, 0 V; Q-array DC (direct current) voltage, 0 V; interface voltage and RF ([…] frequency) voltage were fixed as those in tuning. The chlorinated adducts of molecular ions [M + Cl]^− of 20(R)-ginsenoside Rh1 and 20(S)-ginsenoside Rh1 at m/z 673.45, 20(R)-ginsenoside Rg3 and 20(S)-ginsenoside Rg3 at m/z 819.60, and digoxin (IS) at m/z 815.60 were monitored in selected ion monitoring (SIM) mode.\nRadix Ginseng Rubra and Radix Ophiopogonis were cut into slices and Fructus Schisandrae was scrunched into powder before use. Three drugs were mixed in the ratio of 1 : 3 : 1.5 and the total weight was 110 g. The mixture was extracted with water for three times (1 : 10, 1 : 8, and 1 : 6, w/v) at 100°C, 1 h for each time. The SMS extract was obtained and condensed to 0.55 g/mL crude drug. 20 g Radix Ginseng Rubra was treated as above and the extract was condensed to 0.1 g/mL crude drug. SMS and Radix Ginseng Rubra concentrated solution was subjected to D101 macroporous resin and eluted with water followed by 95% ethanol. The 95% ethanol eluate was further concentrated to 5.5 g/mL crude drug for SMS and 1.0 g/mL crude drug for Radix Ginseng Rubra before use.\nAn aliquot of 300 μL plasma sample was transferred into a centrifuge tube together with 10 μL of IS solution. After vortex-mixing for 30 s, the analytes and IS were extracted from plasma with n-butanol for three times (1 : 3, 1 : 2, and 1 : 2, v/v). Then the organic layer was transferred into another centrifuge tube and evaporated to dryness at 37°C. Finally, the residue was reconstituted in 20 μL methanol and centrifuged at 12,000 ×g for 10 min; 10 μL aliquot was injected into chromatographic system for analysis.\nMale Sprague-Dawley rats, 193–215 g in weight, were supplied by Shanghai Slater Experimental Animal Feeding Center (Shanghai, China). The rats were kept in an air-conditioned animal quarter at a temperature of 22 ± 2°C and a relative humidity of 50 ± 10%. The animals were acclimatized to the facilities for four days and then fasted with free access to water for 12 h prior to experiment. Animal experiments were carried out in accordance with the Regulations of Experimental Animal Administration issued by the Ministry of Science and Technology of China. All animal protocols were approved by the Ethics Committee on the Care and Use of Laboratory Animals of China pharmaceutical University.\nRats were divided randomly into two groups (5 rats in each time point per group) and given an oral dose of 1.35 mL/100 g Radix Ginseng Rubra and SMS extracts, respectively, which was derived from the dose in clinical practice with correction. […]", "key": {"[1]": {"settings": "oral Radix Ginseng Rubra extract 1.35 mL/100 g"}}}
{"smiles": "CC(C)=CCCC(C)(O)C1CCC2C1C(O)CC1C2(C)CC(OC2OC(CO)C(O)C(O)C2O)C2C(C)(C)C(O)CCC21C", "note": "[20(S)-Rh1, 20(S)-ginsenoside Rh1]", "values": [{"measurement": "AUCC", "setting": "oral Radix Ginseng Rubra extract 1.35 mL/100 g, dose-corrected AUC0–∞", "result": "159.20 ± 26.03"}, {"measurement": "T max", "setting": "[1]", "result": 0.50, "unit": "h"}, {"measurement": "AUC(0–t)", "setting": "[1]", "result": "157.53 ± 25.46"}, {"measurement": "AUC(0–∞)", "setting": "[1]", "result": "159.27 ± 26.03"}, {"measurement": "C max", "setting": "[1]", "result": "0.15249 ± 0.03098", "unit": "µg/mL"}, {"measurement": "t 1/2", "setting": "[1]", "result": "2.85 ± 0.69", "unit": "h"}, {"measurement": "T max", "setting": "oral SMS extract 1.35 mL/100 g", "result": 1.50, "unit": "h"}, {"measurement": "AUC(0–t)", "setting": "oral SMS extract 1.35 mL/100 g", "result": "409.48 ± 62.23"}, {"measurement": "AUC(0–∞)", "setting": "oral SMS extract 1.35 mL/100 g", "result": "419.75 ± 65.31"}, {"measurement": "C max", "setting": "oral SMS extract 1.35 mL/100 g", "result": "0.19534 ± 0.04491", "unit": "µg/mL"}, {"measurement": "t 1/2", "setting": "oral SMS extract 1.35 mL/100 g", "result": "4.21 ± 1.05^∗ h"}]}
